From US20230024302A1, “2,3,5-TRISUBSTITUTED PYRAZOLO[1,5-A]PYRIMIDINE COMPOUNDS” (Arcus Biosciences, Inc., priority 2019, published 2023)
Read-outs that look alike come from different tables or passages of the source.

How the values were obtained:
PI3Kγ (p120γ) = biological target: T1, PI3Kγ (p120γ) (Homo sapiens, UniProt P48736); test: Inhibition of PI3K kinase activity (ADP Glo), PI3Kγ; conditions: read-out: biochemical potency (PI3Kγ IC50)
T1 construct: purchased Promega V1761
Experimental: Compounds were evaluated to determine the potency with which they inhibited the kinase activity of the Class I PI3K subunits p110α/p85α (Promega, Cat #V1721), p110β/p85α (Promega, Cat #V1751), p120γ (Promega, Cat #V1761) and p110δ/p85α (Promega, Cat #V1771). Activity was determined as a function of ADP (adenosine diphosphate) generated from ATP consumed during the phosphorylation of Phosphatidylinositol 4,5-bisphosphate (PIP2) (Promega, Cat #V1701) to yield Phosphatidylinositol (3,4,5)-trisphosphate (PIP3). ADP levels in the assay mixture at the end of the reaction were quantitated using ADP Glo (Promega, Cat #V9103) according to the manufacturer's recommended protocol.
Enzyme was prepared for each of the PI3K subunits in 100 mM HEPES, pH 7.4, 100 mM NaCl, 6 mM MgCl2 and 0.05% BSA. p110α/p85α was prepared at 2 nM (2×), p110β/p85α was prepared at 7 nM (2×), p120γ was prepared at 8 nM (2×) and p110δ/p85α was prepared at 2 nM (2×). Five microliters of 2× enzyme dilution of each PI3K subunit were added to a 384-well white Opti-plates pre-dispensed with compound and allowed to incubate for 1 h at rt. A substrate mix containing 0.1 mg/ml (2×) of PIP2 and 50 μM (2×) ATP (Promega, Cat #V915) was prepared in 25 mM HEPES and 0.5 mM EGTA. Reactions were initiated by addition of 5 μl of 2× substrate mix to each well of the plates containing various PI3K isoforms and allowed to proceed for 60 min at rt. Ten microliters of ADP Glo reagent 1 were added to the wells of each plate and allowed to incubate at rt for 45 min according to the manufacturer's directions. Following incubation, 20 μl of ADP Glo reagent 2 was added to each plate and allowed to incubate for an additional 45 min. Luminescent signal, generated by ADP Glo, was quantified by reading on a Perkin Elmer Envision multimode reader. Compound potencies (IC50's) were determined using a standard 4-parameter fit non-linear regression fit.

PI3Kγ = biological target: T2, PI3Kγ (Homo sapiens, UniProt P48736); test: PI3Kγ cellular assay in THP-1 cells (AKT pS473 AlphaLISA); assay type: cell-based
T2 construct: host or cells: THP-1
T2 sequence (P48736 whole entry): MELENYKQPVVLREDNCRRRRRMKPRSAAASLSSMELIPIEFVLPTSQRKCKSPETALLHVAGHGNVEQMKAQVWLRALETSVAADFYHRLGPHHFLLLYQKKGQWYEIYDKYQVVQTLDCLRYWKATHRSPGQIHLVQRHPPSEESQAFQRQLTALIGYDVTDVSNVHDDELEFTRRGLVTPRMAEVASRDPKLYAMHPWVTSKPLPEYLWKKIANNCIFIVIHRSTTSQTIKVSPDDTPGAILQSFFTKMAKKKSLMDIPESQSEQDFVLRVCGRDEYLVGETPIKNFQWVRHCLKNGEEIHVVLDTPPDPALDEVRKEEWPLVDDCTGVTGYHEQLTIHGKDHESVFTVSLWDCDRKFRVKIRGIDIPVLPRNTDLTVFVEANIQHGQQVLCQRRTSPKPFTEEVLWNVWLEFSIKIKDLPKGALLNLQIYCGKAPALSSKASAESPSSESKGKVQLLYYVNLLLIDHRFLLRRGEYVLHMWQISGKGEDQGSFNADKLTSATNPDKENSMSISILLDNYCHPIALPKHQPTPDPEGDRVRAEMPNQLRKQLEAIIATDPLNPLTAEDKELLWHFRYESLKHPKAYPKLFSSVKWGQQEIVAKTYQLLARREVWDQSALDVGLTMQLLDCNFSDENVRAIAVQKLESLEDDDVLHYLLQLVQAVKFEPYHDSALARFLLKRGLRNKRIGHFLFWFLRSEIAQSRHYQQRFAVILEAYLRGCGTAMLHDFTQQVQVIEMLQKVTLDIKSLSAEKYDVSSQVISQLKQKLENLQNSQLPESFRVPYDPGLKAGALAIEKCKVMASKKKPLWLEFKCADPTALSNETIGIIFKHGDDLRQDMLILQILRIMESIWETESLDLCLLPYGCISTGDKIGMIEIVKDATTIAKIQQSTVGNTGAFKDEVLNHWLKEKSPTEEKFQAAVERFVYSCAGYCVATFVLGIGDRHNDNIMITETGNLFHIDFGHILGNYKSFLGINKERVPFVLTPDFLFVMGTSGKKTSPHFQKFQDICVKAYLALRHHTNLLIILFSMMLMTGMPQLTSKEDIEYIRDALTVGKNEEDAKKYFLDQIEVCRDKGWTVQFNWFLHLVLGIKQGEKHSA
Experimental: Twenty microliters of serum starved THP-1 cells were added to the compound plate in serum free DMEM at a density of 9×10^6 cells per ml. Final assay conditions comprised 1.8×10^5 THP-1 cells per well with test compounds in 2% DMSO across a concentration range from 4 nM to 30 μM. […] Briefly, 10 μL of 4× lysis buffer was added to cells after stimulation. Following 60 min incubation at rt, 10 μL of cell lysate was transferred to a fresh 384-well Opti-plate to which 5 μL of AlphaLisa acceptor beads and 5 μL of AlphaLisa donor beads had been added. […] PI3Kγ activity was evaluated as a correlate of endogenous AKT phosphorylation levels. Percentage maximum activity in each test well was calculated based on DMSO (100% activity) and positive control treated cell wells (0% activity). The potencies (IC50's) of test compounds were determined using a standard 4-parameter fit non-linear regression fit.

[1] = Table 2, rhMCP-1 stimulated AKT pS473, read-out: cellular potency (PI3Kγ IC50)
[2] = Table 1, rhMCP-1 stimulated AKT pS473, read-out: cellular potency (PI3Kγ IC50)
[3] = AKT pS473, read-out: cellular potency (PI3Kγ IC50)
[4] = Table 6, rhMCP-1 stimulated AKT pS473, read-out: cellular potency (PI3Kγ IC50)

T1 sequence (P48736 whole entry): as above

SMILES	IC50 (PI3Kγ (p120γ); Table 1, p120γ) [µM]	IC50 (PI3Kγ; [2]) [µM]	further results
Cc1cc(-c2ccn3nc(N)c(C(=O)N[C@@H](C)CO)c3n2)cc2c1C(=O)N([C@@H](C)C1CC1)C2 [Example 221]	–	–	IC50 (PI3Kγ (p120γ); Table 2, p120γ): < 0.1 µM; IC50 (PI3Kγ; [1]): 0.1 to 1 µM
Cc1cc(-c2ccn3nc(N)c(C(=O)N[C@@H]4CCC[C@H]4O)c3n2)cc2c1C(=O)N([C@@H](C)C1CC1)C2 [Example 8, 2-Amino-5-{2-[(1S)-1-cyclopropylethyl]-7-methyl-1-oxo-2,3-dihydro-1H-isoindol-5-yl}-N-[(1R,2R)-2-hydroxycyclopentyl]pyrazolo[1,5-a]pyrimidine-3-carboxamide]	< 0.1	< 0.1	–
Cc1cc(-c2ccn3nc(N)c(C(=O)N[C@H]4CC[C@@H](O)C4)c3n2)cc2c1C(=O)N([C@@H](C)C1CC1)C2 [Example 239]	–	–	IC50 (PI3Kγ (p120γ); Table 2, p120γ): < 0.1 µM; IC50 (PI3Kγ; [1]): 0.1 to 1 µM
Cc1cc(-c2ccn3nc(N)c(C(=O)N[C@H]4CC[C@@H]4O)c3n2)cc2c1C(=O)N([C@@H](C)C1CC1)C2 [Example 211]	–	–	IC50 (PI3Kγ (p120γ); Table 2, p120γ): < 0.1 µM; IC50 (PI3Kγ; [1]): 0.1 to 1 µM
C[C@@H](C1CC1)N1Cc2cc(-c3ccn4nc(N)c(C(=O)N[C@H]5CC[C@@](C)(O)CC5)c4n3)cc(OC(F)(F)F)c2C1=O [Example 24, 2-Amino-5-{2-[(1S)-1-cyclopropylethyl]-1-oxo-7-(trifluoromethoxy)-2,3-dihydro-1H-isoindol-5-yl}-N-[cis-4-hydroxy-4-methylcyclohexyl]pyrazolo[1,5-a]pyrimidine-3-carboxamide]	< 0.1	< 0.1	–
C[C@@H](C1CC1)N1Cc2cc(-c3ccn4nc(N)c(C(=O)N[C@@H]5CC[C@@H](O)C5)c4n3)cc(OC(F)(F)F)c2C1=O [Example 37, 2-Amino-5-{2-[(1S)-1-cyclopropylethyl]-1-oxo-7-(trifluoromethoxy)-2,3-dihydro-1H-isoindol-5-yl}-N-[(1R,3R)-3-hydroxycyclopentyl]pyrazolo[1,5-a]pyrimidine-3-carboxamide]	< 0.1	< 0.1	–
CC(C)[C@H](CO)NC(=O)c1c(N)nn2ccc(-c3cc4c(c(NS(C)(=O)=O)c3)C(=O)N([C@@H](C)C(F)(F)F)C4)nc12 [Example 399]	–	–	IC50 (PI3Kγ (p120γ)): < 0.1 µM; IC50 (PI3Kγ; [3]): 0.1 to 1 µM
Cc1cc(-c2ccn3nc(N)c(C(=O)N4CC(C(C)(C)O)C4)c3n2)cc2c1C(=O)N(C(C)C1CC1)C2 (stereo not shown) [Example 270]	–	–	IC50 (PI3Kγ (p120γ); Table 2, p120γ): < 0.1 µM; IC50 (PI3Kγ; [1]): 0.1 to 1 µM
CNS(=O)(=O)c1cc(-c2ccn3nc(N)c(C(=O)Nc4cnn(C)c4)c3n2)cc2c1C(=O)N([C@@H](C)C1CC1)C2 [Example 140, 2-Amino-5-{2-[(1S)-1-cyclopropylethyl]-7-(methylsulfamoyl)-1-oxo-2,3-dihydro-1H-isoindol-5-yl}-N-(1-methyl-1H-pyrazol-4-yl)pyrazolo[1,5-a]pyrimidine-3-carboxamide]	< 0.1	< 0.1	–
C[C@@H](C1CC1)N1Cc2cc(-c3ccn4nc(N)c(C(=O)N[C@H]5CC[C@H](C(C)(C)O)CC5)c4n3)cc(NS(C)(=O)=O)c2C1=O [Example 91, 2-Amino-5-{2-[(1S)-1-cyclopropylethyl]-7-methanesulfonamido-1-oxo-2,3-dihydro-1H-isoindol-5-yl}-N-[trans-4-(2-hydroxypropan-2-yl)cyclohexyl]pyrazolo[1,5-a]pyrimidine-3-carboxamide]	< 0.1	< 0.1	–
C[C@H](CO)NC(=O)c1c(N)nn2ccc(-c3cc4c(c(N(C)S(C)(=O)=O)c3)C(=O)N([C@@H](C)C3CC3)C4)nc12 [Example 408]	–	–	IC50 (PI3Kγ (p120γ); Table 6, p120γ): < 0.1 µM; IC50 (PI3Kγ; [4]): 0.1 to 1 µM
Cc1cc(-c2ccn3nc(N)c(C(=O)Nc4cnn(CC(C)(C)O)c4)c3n2)cc2c1C(=O)N([C@@H](C)C1CC1)C2 [Example 17, 2-Amino-5-{2-[(1S)-1-cyclopropylethyl]-7-methyl-1-oxo-2,3-dihydro-1H-isoindol-5-yl}-N-[1-(2-hydroxy-2-methylpropyl)-1H-pyrazol-4-yl]pyrazolo[1,5-a]pyrimidine-3-carboxamide]	< 0.1	< 0.1	–
C[C@@H](C1CC1)N1Cc2cc(-c3ccn4nc(N)c(C(=O)Nc5ccc(N)nc5)c4n3)cc(OC(F)(F)F)c2C1=O [Example 46, 2-[(S)-1-Cyclopropylethyl]-5-{2-amino-3-[(6-amino-3-pyridylamino)carbonyl]-1,4,7a-triaza-5-indenyl}-7-trifluoromethoxy-1-isoindolinone]	< 0.1	< 0.1	–
C[C@@H](C1CC1)N1Cc2cc(-c3ccn4nc(N)c(C(=O)N[C@@H]5CCC[C@H]5O)c4n3)cc(OC(F)(F)F)c2C1=O [Example 35, 2-Amino-5-{2-[(1S)-1-cyclopropylethyl]-1-oxo-7-(trifluoromethoxy)-2,3-dihydro-1H-isoindol-5-yl}-N-[(1R,2R)-2-hydroxycyclopentyl]pyrazolo[1,5-a]pyrimidine-3-carboxamide]	< 0.1	< 0.1	–
C[C@@H](C1CC1)N1Cc2cc(-c3ccn4nc(N)c(C(=O)N[C@H]5CC[C@H](CO)CC5)c4n3)cc(C(F)(F)F)c2C1=O [Example 60, 2-Amino-5-(2-((S)-1-cyclopropylethyl)-1-oxo-7-(trifluoromethyl)isoindolin-5-yl)-N-(trans-4-(hydroxymethyl)cyclohexyl)pyrazolo[1,5-a]pyrimidine-3-carboxamide]	< 0.1	< 0.1	–
C[C@@H](C1CC1)N1Cc2cc(-c3ccn4nc(N)c(C(=O)Nc5ccccc5C(C)(C)O)c4n3)cc(OC(F)(F)F)c2C1=O [Example 425]	–	–	IC50 (PI3Kγ (p120γ); Table 6, p120γ): < 0.1 µM; IC50 (PI3Kγ; [4]): > 1 µM
CC(C)NC(=O)c1c(N)nn2ccc(-c3cc4c(c(NS(C)(=O)=O)c3)C(=O)N([C@@H](C)C3CC3)C4)nc12 [Example 75, 2-Amino-5-{2-[(1S)-1-cyclopropylethyl]-7-methanesulfonamido-1-oxo-2,3-dihydro-1H-isoindol-5-yl}-N-(propan-2-yl)pyrazolo[1,5-a]pyrimidine-3-carboxamide]	< 0.1	< 0.1	–
C[C@@H](C1CC1)N1Cc2cc(-c3ccn4nc(N)c(C(=O)Nc5cccc(F)c5)c4n3)cc(NS(C)(=O)=O)c2C1=O [Example 378]	–	–	IC50 (PI3Kγ (p120γ)): < 0.1 µM; IC50 (PI3Kγ; [3]): 0.1 to 1 µM
Cc1cc(-c2ccn3nc(N)c(C(=O)N[C@H]4CCOc5ccccc54)c3n2)cc2c1C(=O)N([C@@H](C)C1CC1)C2 [Example 261]	–	–	IC50 (PI3Kγ (p120γ); Table 2, p120γ): < 0.1 µM; IC50 (PI3Kγ; [1]): 0.1 to 1 µM
Cc1cc(-c2ccn3nc(N)c(C(=O)N[C@H]4CCC[C@@H](O)C4)c3n2)cc2c1C(=O)N([C@@H](C)C1CC1)C2 [Example 9, 2-Amino-5-{2-[(1S)-1-cyclopropylethyl]-7-methyl-1-oxo-2,3-dihydro-1H-isoindol-5-yl}-N-[(1S,3R)-3-hydroxycyclohexyl]pyrazolo[1,5-a]pyrimidine-3-carboxamide]	< 0.1	< 0.1	–
Cc1cc(-c2ccn3nc(N)c(C(=O)N[C@]4(C)C[C@@H](O)C4)c3n2)cc2c1C(=O)N([C@@H](C)C1CC1)C2 [Example 13, 2-Amino-5-{2-[(1S)-1-cyclopropylethyl]-7-methyl-1-oxo-2,3-dihydro-1H-isoindol-5-yl}-N-[trans-3-hydroxy-1-methylcyclobutyl]pyrazolo[1,5-a]pyrimidine-3-carboxamide]	< 0.1	< 0.1	–
Cc1cc(-c2ccn3nc(N)c(C(=O)NC4CC4)c3n2)cc2c1C(=O)N([C@@H]1CCC[C@@H](O)C1)C2 [Example 328]	–	–	IC50 (PI3Kγ (p120γ); Table 2, p120γ): < 0.1 µM; IC50 (PI3Kγ; [1]): 0.1 to 1 µM
C[C@@H](C1CC1)N1Cc2cc(-c3ccn4nc(N)c(C(=O)Nc5ccnc(C(F)(F)F)c5)c4n3)cc(OC(F)(F)F)c2C1=O [Example 428]	–	–	IC50 (PI3Kγ (p120γ); Table 6, p120γ): < 0.1 µM; IC50 (PI3Kγ; [4]): > 1 µM
